# Key:
# Plasmodium falciparum [1] = test: Antiplasmodial activity against chloroquine-resistant Plasmodium falciparum W2; assay type: functional, organism-based
# Plasmodium falciparum [2] = test: Antiplasmodial activity against chloroquine-sensitive Plasmodium falciparum D6; assay type: functional, organism-based
# RAW [3] = test: Inhibition of prostaglandin E2 production in LPS-stimulated mouse RAW 264.7 cells at 10 uM; assay type: functional
# RAW [4] = test: Inhibition of nitric oxide production in LPS-stimulated mouse RAW 264.7 cells at 10 uM; assay type: functional
# Plasmodium falciparum [5] = test: Antimalarial activity against chloroquine-resistant Plasmodium falciparum K1 by [3H]hypoxanthine incorporation; assay type: functional, organism-based
# Rhizoctonia solani = test: Antifungal activity against Rhizoctonia solani; assay type: functional
# Fusarium oxysporum = test: Antifungal activity against Fusarium oxysporum; assay type: functional
# Colletotrichum truncatum [6] = test: Antifungal activity against Colletotrichum capsici; assay type: functional
# Colletotrichum truncatum [7] = test: Antifungal activity against Colletotrichum truncatum CE175; assay type: functional, Glomerella truncata
# Diaporthe longicolla = test: Antifungal activity against Phomopsis longicolla Hobbs CE117; assay type: functional
# [8] = system: Mycobacterium tuberculosis; test: Antibacterial activity against Mycobacterium tuberculosis H37Rv at 12.5 ug/mL; assay type: functional
# Plasmodium falciparum [9] = test: Antiplasmodial activity against chloroquine-sensitive Plasmodium falciparum Dd2 by [3H]hypoxanthine incorporation; assay type: functional, organism-based
# [10] = Inhibition of Leishmania donovani solubilized fumarate reductase
# Plasmodium falciparum [11] = test: Antiplasmodial activity against chloroquine-sensitive Plasmodium falciparum 3D7 by [3H]hypoxanthine incorporation; assay type: functional, organism-based
# Plasmodium falciparum [12] = test: Antiplasmodial activity against chloroquine-sensitive Plasmodium falciparum poW by [3H]hypoxanthine incorporation; assay type: functional, organism-based
# [13] = system: Human immunodeficiency virus 1; test: Inhibition of HIV1 reverse transcriptase production in human C8166 lymphocytes; assay type: functional, organism-based; conditions: Human immunodeficiency virus 1, C8166
# [14] = system: Human immunodeficiency virus 1; test: Antiviral activity against HIV1 3B assessed as inhibition of p24 antigen production in human PBMCs; assay type: functional, organism-based; conditions: Human immunodeficiency virus 1, 3B
# [15] = system: Human immunodeficiency virus 1; test: Inhibition of HIV1 p24 antigen production in human C8166 lymphocytes; assay type: functional, organism-based; conditions: Human immunodeficiency virus 1, C8166
# Plasmodium falciparum [16] = test: Antiplasmodial activity against multiresistant Plasmodium falciparum Dd2 by [3H]hypoxanthine incorporation; assay type: functional, organism-based
# Plasmodium falciparum [17] = test: Inhibition of ring to schizont stage maturation in Plasmodium falciparum NF54 at 2 ug/mL; assay type: functional
# Staphylococcus aureus [18] = test: Antibacterial activity against Staphylococcus aureus; assay type: functional, organism-based
# Staphylococcus aureus [19] = test: Antibacterial activity against methicillin-resistant Staphylococcus aureus; assay type: functional, organism-based
# Escherichia coli = test: Antibacterial activity against Escherichia coli; assay type: functional
# Enterococcus faecium = test: Antibacterial activity against Enterococcus faecium; assay type: functional
# [20] = system: Human immunodeficiency virus; test: Antiviral activity against HIV; assay type: functional, organism-based; conditions: Human immunodeficiency virus 1
# [21] = system: Staphylococcus epidermidis; test: Antibacterial activity against Staphylococcus epidermidis; assay type: functional
# [22] = system: Staphylococcus haemolyticus; test: Antibacterial activity against Staphylococcus haemolyticus; assay type: functional
# Leishmania major = test: Growth inhibition of Leishmania major promastigotes assessed as [3H]thymidine incorporation; assay type: functional, organism-based
# Leishmania donovani = test: Inhibition of Leishmania donovani amastigotes in human monocyte-derived macrophages; assay type: functional, organism-based
# Cryptococcus neoformans = test: Antifungal activity against Cryptococcus neoformans; assay type: functional, organism-based
# Candida albicans = test: Antifungal activity against Candida albicans; assay type: functional, organism-based
# Neutrophil [23] = test: Inhibition of fMLP/CB-stimulated release of lysozyme in rat neutrophils; assay type: functional, cell-based
# Neutrophil [24] = test: Inhibition of fMLP/CB-stimulated release of beta-glucuronidase in rat neutrophils; assay type: functional, cell-based
# Neutrophil [25] = test: Superoxide radical scavenging activity in stimulated human neutrophils; assay type: functional, cell-based
# [26] = Superoxide radical scavenging activity by hypoxanthine / xanthine oxidase system; assay type: functional
# [27] = target: Protease (Human immunodeficiency virus 1) (UniProt Q9YQ12); test: Inhibition of HIV1 protease at 50 ug/mL
# Plasmodium falciparum [28] = test: Antimalarial activity against chloroquine-sensitive Plasmodium falciparum HB3; assay type: functional, organism-based
# [29] = target: Superoxide dismutase [Fe] (Plasmodium falciparum) (UniProt Q9TW89); test: Inhibition of Plasmodium falciparum recombinant superoxide dismutase at 50 uM
# Plasmodium falciparum [30] = test: Antimalarial activity against chloroquine-resistant Plasmodium falciparum Dd2; assay type: functional, organism-based
# Protease (Human immunodeficiency virus 1), sequence (Q9YQ12 as listed by the source): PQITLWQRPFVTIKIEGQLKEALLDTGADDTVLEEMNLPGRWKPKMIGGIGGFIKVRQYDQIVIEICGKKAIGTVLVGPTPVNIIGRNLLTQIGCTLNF
# Superoxide dismutase [Fe] (Plasmodium falciparum), sequence (Q9TW89 whole entry): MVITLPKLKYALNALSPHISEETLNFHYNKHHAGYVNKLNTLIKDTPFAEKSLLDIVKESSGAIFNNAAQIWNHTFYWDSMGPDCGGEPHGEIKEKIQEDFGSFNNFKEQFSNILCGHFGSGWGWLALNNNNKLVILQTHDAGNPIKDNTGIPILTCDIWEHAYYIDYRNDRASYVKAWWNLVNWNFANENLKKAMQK
smiles,measurement,setting,value
COc1cc(/C=C/C(=O)c2ccc(O)cc2O)ccc1O [HOMOBUTEIN],IC50,Plasmodium falciparum [1],10.3 µM
same,IC50,Plasmodium falciparum [2],10.3 µM
COc1cc(OC)c(/C=C/C(=O)c2ccccc2C(F)(F)F)c(OC)c1,inhibition at 10 µM,RAW [3],76.3%
same,inhibition at 10 µM,RAW [4],76.3%
CN(C)c1ccc(/C=C/C(=O)c2ccc(O)cc2)cc1,IC50,Plasmodium falciparum [5],20 µM
O=C(/C(Br)=C(\Br)c1cccc([N+](=O)[O-])c1)c1cccc([N+](=O)[O-])c1,MIC,Rhizoctonia solani,6.25 µg/mL
same,MIC,Fusarium oxysporum,6.25 µg/mL
same,MIC,Colletotrichum truncatum [6],6.25 µg/mL
COc1ccc(C(=O)/C=C/c2ccc(Cl)cc2Cl)c(OC)c1OC,IC50,Plasmodium falciparum [5],6.5 µM
O=C(/C=C/c1ccc(F)cc1F)c1ccc(O)cc1O,IC50,Plasmodium falciparum [5],20 µM
COc1ccc(C(=O)/C=C/c2ccc(C(F)(F)F)cc2)c(OC)c1,IC50,Plasmodium falciparum [5],6.5 µM
COc1c(O)ccc(C(=O)/C=C/c2ccccc2)c1O [LARREIN],MIC,Colletotrichum truncatum [7],6.25 µg/mL
same,MIC,Diaporthe longicolla,6.25 µg/mL
COc1ccc(C(=O)/C=C/c2ccccc2)c(O)c1,inhibition at 12.5 µg/mL,[8],78%
CCCCOc1ccc(C(=O)/C=C/c2ccc(OC)cc2OC)cc1,IC50,Plasmodium falciparum [9],14.8 µM
same,IC50,[10],118 µM
same,IC50,Plasmodium falciparum [11],8.9 µM
O=C(/C=C/c1ccc(Cl)c(Cl)c1)c1ccc(O)cc1,IC50,Plasmodium falciparum [5],20 µM
COc1cc(O)c(CC=C(C)C)c(O)c1C(=O)/C=C/c1ccc(O)cc1 [XANTHOHUMOL],IC50,Plasmodium falciparum [12],8.2 µM
same,EC50,[13],0.5 µg/mL
same,EC50,[14],20.7 µg/mL
same,EC50,[15],1.28 µg/mL
same,IC50,Plasmodium falciparum [16],24 µM
CC(C)=CCc1cc(C(=O)/C=C/c2ccc(O)cc2)c(O)c(CC=C(C)C)c1O [MEDICAGENIN],inhibition at 2 µg/mL,Plasmodium falciparum [17],100%
C=CC(C)(C)c1cc(/C=C/C(=O)c2ccc(O)cc2)c(OC)cc1Cl,MIC,Staphylococcus aureus [18],10 µg/mL
Cc1cc(C)cc(-c2ccc(N3CCNCC3)c(/C=C/C(=O)c3cccc(NCCN(C)C)c3)c2)c1,MIC,Staphylococcus aureus [19],2 µM
same,MIC,Escherichia coli,5 µM
same,MIC,Staphylococcus aureus [18],2 µM
same,MIC,Enterococcus faecium,5 µM
COc1c(C)c(O)c(C(=O)/C=C(\O)c2ccccc2)c(O)c1C=O,EC50,[20],0.022 µg/mL
O=C(/C=C/c1ccc(O)cc1)c1ccc(O)cc1O [ISOLIQUIRITIGENIN],MIC,Staphylococcus aureus [18],250 µg/mL
same,MIC,[21],250 µg/mL
same,MIC,[22],250 µg/mL
O=C(/C=C/c1ccccc1)c1ccc(Cl)cc1O,inhibition at 12.5 µg/mL,[8],89%
COc1cc(O)c(C(=O)CCc2ccc(O)cc2)c(O)c1 [ASEBOGENIN],IC50,Staphylococcus aureus [19],4.5 µg/mL
same,IC50,Staphylococcus aureus [18],10 µg/mL
COc1ccc(/C=C/C(=O)c2ccc(O)cc2)c(OC)c1,IC50,Leishmania major,4 µM
same,IC50,Leishmania donovani,0.65 µM
COc1ccc(/C=C/C(=O)c2ccccc2)c(OC)c1,IC50,Leishmania major,4 µM
same,IC50,Leishmania donovani,0.65 µM
CC(C)=CCc1c(O)ccc(C(=O)/C=C/c2ccc(O)cc2)c1O [ISOBAVACHALCONE],IC50,Cryptococcus neoformans,7 µg/mL
same,IC50,Candida albicans,3 µg/mL
O=C(/C=C/c1ccccc1O)c1ccccc1O,IC50,Neutrophil [23],1.4 µM
same,IC50,Neutrophil [24],1.6 µM
COc1ccc(C(=O)/C=C/c2ccc(N(C)C)cc2)cc1OC,IC50,Neutrophil [25],0.1 µM
same,IC50,[26],0.3 µM
C=C(C)C(O)Cc1c(O)ccc(C(=O)/C=C/c2ccc(O)cc2)c1O (stereo not drawn),IC50,Cryptococcus neoformans,7 µg/mL
same,IC50,Candida albicans,15 µg/mL
O=C(/C=C/c1ccc(O)c(O)c1)c1ccc(O)cc1O,inhibition,[27],50%
O=C(CCc1ccc(O)cc1)c1c(O)cc(O)cc1O,inhibition,[27],27%
CC(C)(C)c1ccc(C(=O)/C=C/c2ccc(Br)cc2)cc1,IC50,Plasmodium falciparum [28],37 µM
same,inhibition,[29],83%
same,IC50,Plasmodium falciparum [30],27 µM

# — ChEMBL document CHEMBL1140598, “A review of anti-infective and anti-inflammatory chalcones” (Eur J Med Chem, 2007)
